Assay results published in patent publication US9265744B2, “Fulvic acid and antibiotic combination for the inhibition or treatment of multi-drug resistant bacteria” (NATRACINE UK LIMITED, priority 2012, dated 2016).

Test system: Klebsiella pneumoniae (ATCC BAA2146 NDM-1+)
Assay: Neutropenic mouse thigh model of K. pneumoniae infection
Format: in vivo, mouse (CD1)
Conditions: IV 2X daily; for Group Ave. Log 10 cfu/g / Group Average (cfu/g), thigh tissue burden / Log reduction from vehicle: 24 h post infection; for No. Sterilised (5 or less colonies detected on neat plate): n = 12 thighs
Description: Mice used in this study were supplied by Charles River UK and were specific pathogen free. The strain of mouse used was CD1, which is a well characterized outbred strain. Mice were 16-18 g on receipt at Euprotec's facility and were allowed to acclimatize for 7 days (target weight at the start of the experiment 22-25 g).
Klebsiella pneumoniae (ATCC BAA2146 NDM-1^+ (blandm) was used throughout the study.
In this study, 6 mice were used in each treatment group. • b) Immunosuppression
Mice were rendered temporarily neutropenic by immunosuppression with cyclophosphamide at 150 mg/kg four days before infection and 100 mg/kg one day before infection by intraperitoneal injection. The immunosuppression regime leads to neutropenia starting 24 hours post administration which continues throughout the study. • c) Infection
Antibacterial treatment was initiated 2 hours post infection (Table 3) and was administered twice (exactly 12 hours apart). An aliquot of 4% CHD-FA stock solution as adjusted to pH 5 with 10 M sodium hydroxide solution then diluted either 1:2 or 1:8 with 0.9% saline to give a dosing solution of 2% (200 mg/kg) and 0.5% (50 mg/kg) CHD-FA respectively.
Colistin was diluted in 0.9% saline to give a dosing solution of 4 mg/ml (40 mg/kg). Meropenem was diluted in 0.9% saline to give a dosing solution of 3 mg/ml (30 mg/kg). The vehicle was 0.9% saline. Following reconstitution, the suspensions were vortexed to ensure complete dissolution.
CHD-FA was administered by gavage, whereas Colistin, Meropenem and the vehicle were administered IV at 10 ml/kg (requiring individual mice to be administered ˜0.25 ml/dose). • e) Endpoints
24 hours post infection, the clinical condition of all animals was assessed prior to them being humanely euthanized. Animal weight was determined before both thighs were removed and weighed individually. Individual thigh tissue samples were homogenized in ice cold sterile phosphate buffered saline. Thigh homogenates were then quantitatively cultured on to CLED agar and incubated at 37° C. for 24 hrs and colonies counted daily. • f) Statistical Analysis
Quantitative thigh tissue burden data for CHD-FA were analysed using the statistical test Kruskal Wallis test (corrected for multiple comparisons) and compared to Colistin, Meropenem and vehicle monotherapy, plus Colistin/CHD-FA and Meropenem/CHD-FA combinations.

Row | Compound | Group Ave. Log 10 cfu/g (Colistin 40 mg/kg) | Group Average (cfu/g), thigh tissue burden (Colistin 40 mg/kg) | Log reduction from vehicle (Colistin 40 mg/kg) | No. Sterilised (5 or less colonies detected on neat plate) (Colistin 40 mg/kg) | Group Ave. Log 10 cfu/g (Meropenem 30 mg/kg) | Group Average (cfu/g), thigh tissue burden (Meropenem 30 mg/kg) | Log reduction from vehicle (Meropenem 30 mg/kg) | No. Sterilised (5 or less colonies detected on neat plate) (Meropenem 30 mg/kg)
1 | Colistin | 9.14 Log 10 cfu/g | 1388363808 cfu/g | 2.27 log 10 | 0 |  |  |  | 
2 | C[C@@H](O)[C@H]1C(=O)N2C(C(=O)O)=C(S[C@@H]3CN[C@H](C(=O)N(C)C)C3)[C@H](C)[C@H]12 [Meropenem] |  |  |  |  | 9.67 Log 10 cfu/g | 4729505542 cfu/g | 1.74 log 10 | 0
